Experiments:
Format in all cases: in vivo
Abutilon theophrasti [1] = test: Post-emergence herbicidal action against ABUTH
In short: (§1)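 Herbicidal action is a visual percentage rating (0% = as untreated control, 100% = plants dead) made roughly 3 weeks after treatment. Plants were grown in sandy loam in the greenhouse and treated at the one-leaf stage, 2 to 3 weeks post-sowing. Treatment was a foliar spray of wettable-powder or emulsion-concentrate formulations at 600 to 800 l/ha water plus 0.2% wetting agent.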

Amaranthus retroflexus [2] = test: Pre-emergence herbicidal action against AMARE; settings: visual score after 3 weeks vs untreated controls
In short: (§2)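 Sandy loam pots, seeds covered with soil, then surface-treated with WP or EC formulations at 600–800 l/ha water plus 0.2% wetting agent. Greenhouse, 3 weeks. Percent damage vs untreated controls.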

Alopecurus myosuroides [3] = test: Pre-emergence herbicidal action against ALOMY; settings: visual score after 3 weeks vs untreated controls
In short: as §2

Veronica persica [4] = test: Pre-emergence herbicidal action against VERPE; settings: 80 g/ha
In short: as §2

Digitaria sanguinalis = test: Pre-emergence herbicidal action against DIGSA
Text: (§3) Seeds of monocotyledonous and dicotyledonous weed plants and crop plants are laid out in sandy loam soil in wood-fiber pots and covered with soil. The compounds of the invention, formulated in the form of wettable powders (WP) or as emulsion concentrates (EC), are then applied to the surface of the covering soil in the form of an aqueous suspension or emulsion at a water application rate equivalent to 600 to 800 l/ha, with addition of 0.2% wetting agent. After the treatment, the pots are placed in a greenhouse and kept under good growth conditions for the trial plants. The damage to the test plants is scored visually after a test period of 3 weeks by comparison with untreated controls (herbicidal activity in percent (%): 100% activity=the plants have died, 0% activity=like control plants). […] The tables below illustrate, in an illustrative manner, the post-emergence herbicidal action of the compounds of the invention, the herbicidal activity being stated in percent.

Pharbitis purpurea = test: Post-emergence herbicidal action against PHBPU; settings: 20 g/ha, visual assessment about 3 weeks after treatment
In short: as §1

Alopecurus myosuroides [5] = test: Post-emergence herbicidal action against ALOMY
In short: as §1

Matricaria inodora [6] = test: Pre-emergence herbicidal action against MATIN; settings: visual score after 3 weeks vs untreated controls
In short: as §2

Veronica persica [7] = test: Post-emergence herbicidal action against VERPE; settings: 20 g/ha, visual assessment about 3 weeks after treatment
In short: as §1

Amaranthus retroflexus [8] = test: Post-emergence herbicidal action against AMARE; settings: visual assessment about 3 weeks after treatment
In short: as §1

Setaria viridis [9] = test: Post-emergence herbicidal action against SETVI; settings: visual assessment about 3 weeks after treatment
In short: as §1

Polygonum convolvulus = test: Pre-emergence herbicidal action against POLCO
Text: as §3

Viola tricolor [10] = test: Post-emergence herbicidal action against VIOTR
In short: as §1

Abutilon theophrasti [11] = test: Pre-emergence herbicidal action against ABUTH; settings: visual score after 3 weeks vs untreated controls
In short: as §2

Setaria viridis [12] = test: Pre-emergence herbicidal action against SETVI
In short: as §2

Echinochloa crus-galli [13] = test: Pre-emergence herbicidal action against ECHCG; settings: 80 g/ha; visual score after 3 weeks vs untreated controls
In short: as §2

Viola tricolor [14] = test: Pre-emergence herbicidal action against VIOTR
In short: as §2

Matricaria inodora [15] = test: Post-emergence herbicidal action against MATIN; settings: 20 g/ha, visual assessment about 3 weeks after treatment
In short: as §1

Avena fatua [16] = test: Pre-emergence herbicidal action against AVEFA; settings: 80 g/ha; visual score after 3 weeks vs untreated controls
Text: as §3

Lolium rigidum = test: Pre-emergence herbicidal action against LOLRI; settings: 80 g/ha
Text: as §3

Avena fatua [17] = test: Post-emergence herbicidal action against AVEFA; settings: 20 g/ha, visual assessment about 3 weeks after treatment
Method: Seeds of monocotyledonous and dicotyledonous weed and crop plants are laid out in sandy loam soil in wood-fiber pots, covered with soil and cultivated in a greenhouse under good growth conditions. 2 to 3 weeks after sowing, the test plants are treated at the one-leaf stage. The compounds of the invention, formulated in the form of wettable powders (WP) or as emulsion concentrates (EC), are then sprayed onto the green parts of the plants in the form of an aqueous suspension or emulsion at a water application rate equivalent to 600 to 800 l/ha, with addition of 0.2% wetting agent. After the test plants have been left to stand in the greenhouse under optimal growth conditions for about 3 weeks, the action of the preparations is assessed visually in comparison to untreated controls (herbicidal action in percent (%): 100% activity=the plants have died, 0% activity=like control plants). […] The tables below illustrate, in an illustrative manner, the post-emergence herbicidal action of the compounds of the invention, the herbicidal activity being stated in percent.

Echinochloa crus-galli [18] = test: Post-emergence herbicidal action against ECHCG; settings: 20 g/ha, visual assessment about 3 weeks after treatment
In short: as §1

Compound	Post-emergence action against ABUTH (Abutilon theophrasti [1]; 5 g/ha) [%]	Post-emergence action against ABUTH (Abutilon theophrasti [1]; 20 g/ha) [%]	Pre-emergence action against AMARE (Amaranthus retroflexus [2]; 20 g/ha) [%]	Pre-emergence action against AMARE (Amaranthus retroflexus [2]; 80 g/ha) [%]	Pre-emergence action against ALOMY (Alopecurus myosuroides [3]; 80 g/ha) [%]	Post-emergence action against PHBPU in % (Pharbitis purpurea) [%]	Post-emergence action against ALOMY (Alopecurus myosuroides [5]; 20 g/ha) [%]	Pre-emergence action against MATIN (Matricaria inodora [6]; 20 g/ha) [%]	Pre-emergence action against MATIN (Matricaria inodora [6]; 80 g/ha) [%]	Post-emergence action against AMARE in % (Amaranthus retroflexus [8]; 5 g/ha) [%]	Post-emergence action against AMARE in % (Amaranthus retroflexus [8]; 20 g/ha) [%]	Post-emergence action against SETVI in % (Setaria viridis [9]; 20 g/ha) [%]	Post-emergence action against VIOTR in % (Viola tricolor [10]; 20 g/ha) [%]	Pre-emergence action against ABUTH (Abutilon theophrasti [11]; 20 g/ha) [%]	Pre-emergence action against ABUTH (Abutilon theophrasti [11]; 80 g/ha) [%]	Pre-emergence action against SETVI (Setaria viridis [12]; 80 g/ha) [%]	Pre-emergence action against ECHCG (Echinochloa crus-galli [13]) [%]	Pre-emergence action against VIOTR (Viola tricolor [14]; 80 g/ha) [%]	Pre-emergence action against LOLRI (Lolium rigidum) [%]	Post-emergence action against ALOMY (Alopecurus myosuroides [5]; 5 g/ha) [%]	further results
CN(CC(F)F)C(=O)c1c(C(F)(F)F)ccc(C(=O)Nc2nnnn2C)c1Cl [Example 1-128]	80	90	100	100	100	90	80	80	90	100	100	90	100	100	100	100	100	100			Pre-emergence action against VERPE (Veronica persica [4]): 100%; Pre-emergence action against DIGSA (Digitaria sanguinalis; 20 g/ha): 100%; Pre-emergence action against DIGSA (Digitaria sanguinalis; 80 g/ha): 100%; Post-emergence action against VERPE in % (Veronica persica [7]): 90%; Pre-emergence action against POLCO (Polygonum convolvulus; 20 g/ha): 80%; Pre-emergence action against POLCO (Polygonum convolvulus; 80 g/ha): 80%; Post-emergence action against VIOTR in % (Viola tricolor [10]; 5 g/ha): 90%; Pre-emergence action against SETVI (Setaria viridis [12]; 20 g/ha): 90%; Pre-emergence action against VIOTR (Viola tricolor [14]; 20 g/ha): 100%; Post-emergence action against MATIN in % (Matricaria inodora [15]): 80%
CCN(C)C(=O)c1c(Br)ccc(C(=O)Nc2nnnn2CC)c1Cl [Example 2-192]	80	80	100	100	100	80	100	100	100	100	100	100	100	100	100	100	90	100	80	80	Pre-emergence action against AVEFA (Avena fatua [16]): 80%; Pre-emergence action against VERPE (Veronica persica [4]): 80%; Post-emergence action against AVEFA in % (Avena fatua [17]): 80%; Post-emergence action against SETVI in % (Setaria viridis [9]; 5 g/ha): 100%; Post-emergence action against ECHCG in % (Echinochloa crus-galli [18]): 100%
CN(C)C(=O)c1c(Br)ccc(C(=O)Nc2nnnn2C)c1Cl [Example 1-191]	80	90		100	100		100	80	100	100	100	100		100	100	100	90	100	80	80	Pre-emergence action against AVEFA (Avena fatua [16]): 90%; Pre-emergence action against ALOMY (Alopecurus myosuroides [3]; 20 g/ha): 90%; Pre-emergence action against VERPE (Veronica persica [4]): 90%; Post-emergence action against AVEFA in % (Avena fatua [17]): 90%; Post-emergence action against ECHCG in % (Echinochloa crus-galli [18]): 100%
CCN(C(=O)c1c(C(F)F)ccc(C(=O)Nc2nnnn2CC)c1Cl)C1CC1 [Example 2-167]	90	90	100	100	100	90	100	100	100	100	100	90	100	100	100	100	90	100	80	80	Post-emergence action against AVEFA in % (Avena fatua [17]): 80%; Post-emergence action against VERPE in % (Veronica persica [7]): 80%; Post-emergence action against SETVI in % (Setaria viridis [9]; 5 g/ha): 90%; Post-emergence action against ECHCG in % (Echinochloa crus-galli [18]): 90%; Pre-emergence action against VIOTR (Viola tricolor [14]; 20 g/ha): 80%; Post-emergence action against MATIN in % (Matricaria inodora [15]): 80%
CCN(C)C(=O)c1c(Br)ccc(C(=O)Nc2nnnn2C)c1Cl [Example 1-192]	90	90	80	100	100	80	100		100	100	100	100	80	80	100	100	80	100	80	90	Pre-emergence action against AVEFA (Avena fatua [16]): 80%; Post-emergence action against SETVI in % (Setaria viridis [9]; 5 g/ha): 100%; Post-emergence action against ECHCG in % (Echinochloa crus-galli [18]): 100%

From US12599136B2, “Substituted isophthalic acid diamides and their use as herbicides” (Bayer Aktiengesellschaft, priority 2020, dated 2026)
